“Also recorded” adds a separate entry of the source.
Legend:
Ba/F3 FLT3 ITD + D835V = experiment: Ba/F3 cell viability, FLT3 ITD + D835V; assay type: cell-based; conditions: Mus musculus, Ba/F3, 48 hr, ± SEM
Protocol: (§1) Stable Ba/F3 lines were generated by retroviral spinfection with the appropriate mutated plasmid as previously described ([Smith et al., 2012]).
(§2) Exponentially growing cells (5 × 10^3 cells per well) were plated in each well of a 96-well plate with 0.1 ml of RPMI 1640 + 10% (vol/vol) FCS containing the appropriate concentration of drug in triplicate, and cell viability was assessed after 48 hr as previously described ([Smith et al., 2012]). […] Log10-scale transformation of ratios, followed by conditional formatting using xcel spreadsheet software yielded the colored diagrams shown.
(§3) Mutations isolated in the screen were engineered into pMSCVpuroFLT3–ITD by QuikChange mutagenesis (Stratagene, La Jolla, CA) as previously described ([Smith et al., 2012]).

Ba/F3 FLT3 ITD + Y693C = experiment: Ba/F3 cell viability, FLT3 ITD + Y693C; assay type: cell-based; conditions: Mus musculus, Ba/F3, 48 hr, ± SEM
Protocol: as §1, §2, §3

HMC1.1 cells = experiment: Caspase-3 activation (apoptosis), HMC1.1; assay type: cell-based, human; conditions: 48 hr, up to 2,500 nM
Protocol: Cells were fixed with 4% (vol/vol) paraformaldehyde (Electron Microscopy Sciences) and permeabilized with 100% (vol/vol) methanol (Electron Microscopy Sciences, Hatfield, PA) followed by staining with a FITC-conjugated antiactive caspase-3 antibody (BD Pharmingen, San Jose, CA). Cells were run on a BD LSRFortessa cell analyzer, and data were analyzed using FlowJo (Tree Star Inc., Ashland, OR). Percentage of live cells was determined by negative staining for activated caspase-3 (see Figure 2B,C).

Ba/F3 FLT3 ITD + Y842H = experiment: Ba/F3 cell viability, FLT3 ITD + Y842H; assay type: cell-based; conditions: Mus musculus, Ba/F3, 48 hr, ± SEM
Protocol: as §1, §2, §3

purified FLT3 WT = target: T1, purified FLT3 WT (Homo sapiens, UniProt P36888); experiment: Radiolabeled purified kinase assay (Figure 1B)
T1 sequence (P36888 27-993): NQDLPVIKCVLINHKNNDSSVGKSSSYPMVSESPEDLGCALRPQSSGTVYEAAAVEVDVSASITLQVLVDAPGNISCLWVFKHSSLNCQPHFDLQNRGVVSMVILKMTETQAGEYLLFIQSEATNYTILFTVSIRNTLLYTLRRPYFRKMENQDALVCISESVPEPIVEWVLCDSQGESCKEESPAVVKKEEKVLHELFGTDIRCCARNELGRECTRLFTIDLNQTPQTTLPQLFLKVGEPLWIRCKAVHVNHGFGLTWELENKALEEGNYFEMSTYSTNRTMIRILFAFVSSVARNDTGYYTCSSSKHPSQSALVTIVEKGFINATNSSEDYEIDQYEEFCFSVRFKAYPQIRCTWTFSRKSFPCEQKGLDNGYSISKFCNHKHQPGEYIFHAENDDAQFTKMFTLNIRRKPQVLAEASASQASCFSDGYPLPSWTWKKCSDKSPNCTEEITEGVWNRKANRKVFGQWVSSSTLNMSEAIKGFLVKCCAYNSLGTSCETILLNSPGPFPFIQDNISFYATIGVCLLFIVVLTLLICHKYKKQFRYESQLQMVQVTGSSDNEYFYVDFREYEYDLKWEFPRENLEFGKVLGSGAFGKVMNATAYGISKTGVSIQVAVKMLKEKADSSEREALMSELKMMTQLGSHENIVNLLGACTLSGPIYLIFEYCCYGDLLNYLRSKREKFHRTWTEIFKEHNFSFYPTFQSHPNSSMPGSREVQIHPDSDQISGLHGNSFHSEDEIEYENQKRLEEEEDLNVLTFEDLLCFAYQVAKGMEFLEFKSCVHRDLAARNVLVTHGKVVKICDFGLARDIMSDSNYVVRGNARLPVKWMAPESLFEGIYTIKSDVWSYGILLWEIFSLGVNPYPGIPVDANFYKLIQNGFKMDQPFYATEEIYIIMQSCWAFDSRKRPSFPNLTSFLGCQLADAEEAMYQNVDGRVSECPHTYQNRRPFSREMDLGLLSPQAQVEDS

Ba/F3 FLT3 ITD + Y842C = experiment: Ba/F3 cell viability, FLT3 ITD + Y842C; assay type: cell-based; conditions: Mus musculus, Ba/F3, 48 hr, ± SEM
Protocol: as §1, §2, §3

[1] = tested on: FLT3/ITD-injected zebrafish embryos; experiment: Zebrafish FLT3/ITD-induced mpo+ myeloid cell expansion; assay type: in vivo, Danio rerio (zebrafish); conditions: 10 μM, 6 to 30 hpf, read at 30 hpf
Protocol: Figure 4. […] (N–P) Three categories of mpo transcription (N, normal; O, intermediate; P, severe) were defined based on the WISH results (three experiments). […] Scale bar equals 500 μm. Blue arrows indicate the pericardial edema, green arrows indicate tail shortening and curving, and red arrows indicate the FLT3-ITD AML mpo+ myeloid cells expansion. […] For all experiments: Zebrafish embryos were collected and kept in standard E3 medium at 28°C. Different concentrations of either drug were added to the E3 medium from 6 hr post fertilization (hpf) to 3 days post fertilization (dpf). Embryos treated with DMSO or 10 μM drug from 6 to 30 hpf were collected for mpo whole mount in situ hybridization (WISH) analysis. […] plasmid DNA containing FLT3/ITD sequence was microinjected into one-cell stage embryos, and the uninjected embryos were used as control. FLT3/ITD-injected embryos were treated with DMSO or 10 μM drug from 6 to 30 hpf.
Wild-type (WT) zebrafish were maintained under standard conditions, and embryos were staged as described ([He et al., 2014]). The study was approved by the Committee of the Use of Live Animals for Teaching and Research in The University of Hong Kong.

Ba/F3 FLT3 ITD + D698N = experiment: Ba/F3 cell viability, FLT3 ITD + D698N; assay type: cell-based; conditions: Mus musculus, Ba/F3, 48 hr, ± SEM
Protocol: as §1, §2, §3

PDGFRα = PDGFRα (Homo sapiens, UniProt P16234); experiment: Reaction Biology Corp kinase assay at Km-ATP (Figure 1C), PDGFRα
PDGFRα, sequence (P16234 24-1089): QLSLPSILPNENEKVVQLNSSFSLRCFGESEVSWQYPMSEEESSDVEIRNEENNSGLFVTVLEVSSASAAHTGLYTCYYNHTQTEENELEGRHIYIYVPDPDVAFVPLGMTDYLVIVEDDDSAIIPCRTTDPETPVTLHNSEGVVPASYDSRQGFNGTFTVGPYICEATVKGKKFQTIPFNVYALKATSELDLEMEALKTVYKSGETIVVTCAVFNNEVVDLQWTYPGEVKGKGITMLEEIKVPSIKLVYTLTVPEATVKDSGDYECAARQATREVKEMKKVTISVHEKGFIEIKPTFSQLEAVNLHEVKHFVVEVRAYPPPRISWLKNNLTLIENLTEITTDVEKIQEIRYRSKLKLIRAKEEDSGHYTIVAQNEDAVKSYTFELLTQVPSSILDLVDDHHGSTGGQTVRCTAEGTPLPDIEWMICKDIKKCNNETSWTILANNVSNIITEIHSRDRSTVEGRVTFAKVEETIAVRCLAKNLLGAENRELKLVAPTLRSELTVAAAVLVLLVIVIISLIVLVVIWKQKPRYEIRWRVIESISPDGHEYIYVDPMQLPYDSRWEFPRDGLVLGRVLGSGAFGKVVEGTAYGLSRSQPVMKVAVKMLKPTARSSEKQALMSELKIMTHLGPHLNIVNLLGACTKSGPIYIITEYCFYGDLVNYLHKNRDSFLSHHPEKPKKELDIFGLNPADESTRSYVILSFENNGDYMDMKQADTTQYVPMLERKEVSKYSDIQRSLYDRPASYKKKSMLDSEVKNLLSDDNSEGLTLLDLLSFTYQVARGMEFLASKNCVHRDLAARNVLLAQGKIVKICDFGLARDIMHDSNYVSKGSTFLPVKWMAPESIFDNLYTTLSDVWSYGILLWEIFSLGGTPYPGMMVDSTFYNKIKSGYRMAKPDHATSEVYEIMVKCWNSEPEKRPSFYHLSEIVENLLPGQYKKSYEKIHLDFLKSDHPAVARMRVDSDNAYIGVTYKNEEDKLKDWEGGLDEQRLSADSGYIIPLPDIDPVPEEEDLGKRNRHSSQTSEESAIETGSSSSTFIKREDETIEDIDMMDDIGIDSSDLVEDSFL

For `CC1NC(=O)c2c1c1c3ccccc3n(CCCN)c1c1[nH]c3ccccc3c21` (stereo not drawn) [Star 27], the IC50 (Ba/F3 FLT3 ITD + D835V) was 70 ± 58 nM, the IC50 (Ba/F3 FLT3 ITD + Y693C) was 279 ± 36 nM and the “apoptosis/toxicity (caspase-3) in KIT-addicted HMC1.1 cells” value (HMC1.1 cells) was “very little up to 2,500 nM; also recorded: minimal apoptosis”. The IC50 (Ba/F3 FLT3 ITD + Y842H) was 38 ± 24 nM, the IC50 (purified FLT3 WT) was 1.5 nM and the IC50 (Ba/F3 FLT3 ITD + Y842C) was 48 ± 29 nM. For the same compound, the “effect on FLT3/ITD-induced mpo+ myeloid cells expansion” value [1] was “rescue of normal phenotype approaching that seen for AC220”, the IC50 (Ba/F3 FLT3 ITD + D698N) was 174 ± 44 nM and the IC50 (PDGFRα) was 931 ± 109 nM.

Source: publication PMC4307180, “Overcoming myelosuppression due to synthetic lethal toxicity for FLT3-targeted acute myeloid leukemia therapy” (eLife, 2014)
